Source: PubChem BioAssay AID270 (DTP/NCI, 2004)
Where “and” joins values, the source holds several entries; their conditions need not be identical. Equal entries are not always repeated. Inconclusive results are not listed.

Tested on: BDF1 mice, s.c. Lewis lung carcinoma, T/C %
Assay: NCI In Vivo Anticancer Drug Screen. Data for tumor model Lewis Lung Carcinoma (subcutaneous) in B6D2F1 (BDF1) mice
Outline: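 First, mice carry a transplantable tumor. Next, groups receive either compound or vehicle. Finally, survival or tumor dimensions in the dosed animals are divided by the corresponding control figure.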

[1] = endpoint: median survival time, dose: 2.0 mg/kg/injection, schedule: Q01DX009 (ip), vehicle: Klucel (hydroxypropylcellulose) (HPC), higher = longer survival

CCCOP(=S)(N1CC1)N1CC1
T/C (endpoint: median survival time, dose: 18.75 mg/kg/injection, schedule: Q01DX009 (ip), vehicle: Klucel (hydroxypropylcellulose) (HPC), higher = longer survival): 112 % of control | T/C (endpoint: median survival time, dose: 37.5 mg/kg/injection, schedule: Q01DX009 (ip), vehicle: Klucel (hydroxypropylcellulose) (HPC), higher = longer survival): 95 % of control | T/C (endpoint: median survival time, dose: 75.0 mg/kg/injection, schedule: Q01DX009 (ip), vehicle: Klucel (hydroxypropylcellulose) (HPC), higher = longer survival): 94 % of control | T/C (endpoint: median survival time, dose: 100.0 mg/kg/injection, schedule: Q01DX009 (ip), vehicle: saline, higher = longer survival): 116 % of control

Cc1cccc(C)c1[N+](=O)[O-]
T/C (endpoint: mean tumor weight, dose: 133.0 mg/kg/injection, schedule: Q01DX011 (ip), vehicle: other, higher = larger tumour): 88 % of control | T/C (endpoint: mean tumor weight, dose: 200.0 mg/kg/injection, schedule: Q01DX011 (ip), vehicle: other, higher = larger tumour): 66 % of control | T/C (endpoint: mean tumor weight, dose: 300.0 mg/kg/injection, schedule: Q01DX011 (ip), vehicle: other, higher = larger tumour): 67 % of control

COc1ccc(CN2CCCN(Cc3ccc(OC)cc3)C2c2ccc(Cl)cc2Cl)cc1
T/C (endpoint: mean tumor weight, dose: 74.0 mg/kg/injection, schedule: Q01DX011 (ip), vehicle: other, higher = larger tumour): 119 % of control | T/C (endpoint: mean tumor weight, dose: 166.0 mg/kg/injection, schedule: Q01DX011 (ip), vehicle: other, higher = larger tumour): 111 % of control

COC1C(OC(=O)/C=C/C=C/C=C/C=C/C(=O)O)CCC2(CO2)C1C1(C)OC1CC=C(C)C (stereo unspecified)
T/C (endpoint: mean tumor weight, dose: 25.0 mg/kg/injection, schedule: Q01DX011 (ip), vehicle: saline, higher = larger tumour): 82 % of control | T/C (endpoint: mean tumor weight, dose: 50.0 mg/kg/injection, schedule: Q01DX011 (ip), vehicle: saline, higher = larger tumour): 38 % of control and 49 % of control | T/C (endpoint: mean tumor weight, dose: 100.0 mg/kg/injection, schedule: Q01DX011 (ip), vehicle: saline, higher = larger tumour): 54 % of control | T/C (endpoint: mean tumor weight, dose: 200.0 mg/kg/injection, schedule: Q01DX011 (ip), vehicle: saline, higher = larger tumour): 23 % of control

COc1cc2ccc3c4cc5c(cc4c[n+](C)c3c2cc1OC)OCO5
T/C (endpoint: median survival time, dose: 1.25 mg/kg/injection, schedule: Q01DX009 (ip), vehicle: Klucel (hydroxypropylcellulose) (HPC), higher = longer survival): 108 % of control | T/C (endpoint: median survival time, dose: 2.5 mg/kg/injection, schedule: Q01DX009 (ip), vehicle: Klucel (hydroxypropylcellulose) (HPC), higher = longer survival): 92 % of control | T/C (endpoint: median survival time, dose: 5.0 mg/kg/injection, schedule: Q01DX009 (ip), vehicle: Klucel (hydroxypropylcellulose) (HPC), higher = longer survival): 102 % of control | T/C (endpoint: median survival time, dose: 10.0 mg/kg/injection, schedule: Q01DX009 (ip), vehicle: Klucel (hydroxypropylcellulose) (HPC), higher = longer survival): 99 % of control

Cc1cc2c(c3oc(C4(C)OC4C4OC4C)cc(=O)c13)C(=O)c1c(O)c(C3CC(C)(N(C)C)C(O)C(C)O3)cc(C3CC(N(C)C)C(O)C(C)O3)c1C2=O (stereo unspecified)
T/C (endpoint: median survival time, dose: 4.0 micrograms/kg/injection, schedule: Q01DX009 (ip), vehicle: DMSO, higher = longer survival): 105 % of control | T/C (endpoint: median survival time, dose: 8.0 micrograms/kg/injection, schedule: Q01DX009 (ip), vehicle: DMSO, higher = longer survival): 108 % of control | T/C (endpoint: median survival time, dose: 16.0 micrograms/kg/injection, schedule: Q01DX009 (ip), vehicle: DMSO, higher = longer survival): 100 % of control

NC(=O)N(CCCl)N=O
T/C (endpoint: mean tumor weight, dose: 0.63 mg/kg/injection, schedule: Q01DX011 (ip), vehicle: saline, higher = larger tumour): 80 % of control | T/C (endpoint: mean tumor weight, dose: 1.25 mg/kg/injection, schedule: Q01DX011 (ip), vehicle: saline, higher = larger tumour): 53 % of control | T/C (endpoint: mean tumor weight, dose: 2.5 mg/kg/injection, schedule: Q01DX011 (ip), vehicle: saline, higher = larger tumour): 10 % of control | T/C (endpoint: median survival time, dose: 1.0 mg/kg/injection, schedule: Q01DX001 (ip), vehicle: saline + alcohol, higher = longer survival): 120 % of control

NC(Cc1cc([N+](=O)[O-])ccc1CN(CCCl)CCCl)C(=O)O (stereo unspecified)
T/C (endpoint: median survival time, dose: 1.0 mg/kg/injection, schedule: Q01DX009 (ip), vehicle: Klucel (hydroxypropylcellulose) (HPC), higher = longer survival): 110 % of control | T/C [1]: 116 % of control | T/C (endpoint: median survival time, dose: 3.12 mg/kg/injection, schedule: Q01DX001 (ip), vehicle: Klucel (hydroxypropylcellulose) (HPC), higher = longer survival): 107 % of control | T/C (endpoint: median survival time, dose: 6.25 mg/kg/injection, schedule: Q01DX001 (ip), vehicle: Klucel (hydroxypropylcellulose) (HPC), higher = longer survival): 104 % of control | T/C (endpoint: median survival time, dose: 12.5 mg/kg/injection, schedule: Q01DX001 (ip), vehicle: Klucel (hydroxypropylcellulose) (HPC), higher = longer survival): 103 % of control

C/C=C(\C)c1cc(=O)c2c(C)cc3c(c2o1)C(=O)c1c(O)c(C2CC(C)(N(C)C)C(O)C(C)O2)cc(C2CC(N(C)C)C(O)C(C)O2)c1C3=O (stereo unspecified)
T/C (endpoint: median survival time, dose: 0.5 mg/kg/injection, schedule: Q01DX009 (ip), vehicle: Klucel (hydroxypropylcellulose) (HPC), higher = longer survival): 100 % of control | T/C [1]: 96 % of control

CC(C)C1C=C2CCC3C(C)(C(=O)O)CCCC3(C)C2CC1 (stereo unspecified)
T/C (endpoint: mean tumor weight, dose: 100.0 mg/kg/injection, schedule: Q01DX011 (ip), vehicle: carboxymethylcellulose (CMC), higher = larger tumour): 89 % of control | T/C (endpoint: mean tumor weight, dose: 200.0 mg/kg/injection, schedule: Q01DX011 (ip), vehicle: carboxymethylcellulose (CMC), higher = larger tumour): 38 % of control

CSCS(=O)C[C@H](CO)NC(=O)/C=C/c1c(C)[nH]c(=O)[nH]c1=O (stereo partly specified)
T/C (endpoint: median survival time, dose: 0.08 mg/kg/injection, schedule: Q01DX009 (ip), vehicle: water, higher = longer survival): 94 % of control | T/C (endpoint: median survival time, dose: 0.15 mg/kg/injection, schedule: Q01DX009 (ip), vehicle: water, higher = longer survival): 109 % of control | T/C (endpoint: median survival time, dose: 0.3 mg/kg/injection, schedule: Q01DX009 (ip), vehicle: water, higher = longer survival): 97 % of control
